This passage reports IC50 results from paper PMC6992940 (Bone Reports, 2020).

The target of the assay is ERα (estrogen receptor alpha) (Homo sapiens, UniProt P03372). Put plainly: fluorescence polarization competitor assay. The format is binding. In general terms: Polarisation of emitted light reports the rotation of a fluorescent probe.
Sequence of ERα (estrogen receptor alpha) (P03372 whole entry): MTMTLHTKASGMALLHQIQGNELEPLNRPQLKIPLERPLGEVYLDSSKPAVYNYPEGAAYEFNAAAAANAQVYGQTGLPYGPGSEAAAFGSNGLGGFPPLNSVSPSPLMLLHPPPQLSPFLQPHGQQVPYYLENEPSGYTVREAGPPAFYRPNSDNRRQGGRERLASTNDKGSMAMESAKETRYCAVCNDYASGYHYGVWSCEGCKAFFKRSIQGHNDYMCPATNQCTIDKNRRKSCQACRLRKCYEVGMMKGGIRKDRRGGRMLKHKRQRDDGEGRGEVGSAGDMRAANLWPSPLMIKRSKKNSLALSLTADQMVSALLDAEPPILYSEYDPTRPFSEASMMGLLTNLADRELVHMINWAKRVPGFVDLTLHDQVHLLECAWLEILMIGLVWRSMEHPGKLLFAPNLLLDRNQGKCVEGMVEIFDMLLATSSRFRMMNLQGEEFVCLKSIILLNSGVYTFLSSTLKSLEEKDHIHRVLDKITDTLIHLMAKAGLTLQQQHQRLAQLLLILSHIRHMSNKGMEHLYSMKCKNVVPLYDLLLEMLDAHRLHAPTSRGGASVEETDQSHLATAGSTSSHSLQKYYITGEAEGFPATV

For orientation: IC50 means the point on the concentration scale where inhibition reaches its midpoint. Low readings indicate higher potency, high ones lower potency. `COc1ccc2c(C(=O)c3ccc(OCCN4CCCCC4)cc3)c(-c3ccc(O)cc3)sc2c1` [compound 2, (2-(4-hydroxyphenyl)-6-methoxybenzo[b]thiophen-3-yl)(4-(2-(piperidin-1-yl)ethoxy)phenyl)methanone] yielded an IC50 of 183 nM.
